According to patent publication US20100292229A1, “TRYPHOSTIN-ANALOGS FOR THE TREATMENT OF CELL PROLIFERATIVE DISEASES” (The Board of Regents of the University of Texas System, priority 2006, published 2010):
Read-outs that look alike come from different tables or passages of the source.

Assays:
[1] = molecular target: T1, BCR-ABL (Homo sapiens, UniProt P00519); test: BCR-ABL protein level and distribution in K562 cells; assay type: cell-based
T1 construct: The BCR-ABL expressing CML cell line (K562); endogenous in cells; host or cells: K562; the other entry of the earlier key: BCR (P11274, Breakpoint cluster region protein)
T1 sequence (P00519 with tags, fused parts or gaps): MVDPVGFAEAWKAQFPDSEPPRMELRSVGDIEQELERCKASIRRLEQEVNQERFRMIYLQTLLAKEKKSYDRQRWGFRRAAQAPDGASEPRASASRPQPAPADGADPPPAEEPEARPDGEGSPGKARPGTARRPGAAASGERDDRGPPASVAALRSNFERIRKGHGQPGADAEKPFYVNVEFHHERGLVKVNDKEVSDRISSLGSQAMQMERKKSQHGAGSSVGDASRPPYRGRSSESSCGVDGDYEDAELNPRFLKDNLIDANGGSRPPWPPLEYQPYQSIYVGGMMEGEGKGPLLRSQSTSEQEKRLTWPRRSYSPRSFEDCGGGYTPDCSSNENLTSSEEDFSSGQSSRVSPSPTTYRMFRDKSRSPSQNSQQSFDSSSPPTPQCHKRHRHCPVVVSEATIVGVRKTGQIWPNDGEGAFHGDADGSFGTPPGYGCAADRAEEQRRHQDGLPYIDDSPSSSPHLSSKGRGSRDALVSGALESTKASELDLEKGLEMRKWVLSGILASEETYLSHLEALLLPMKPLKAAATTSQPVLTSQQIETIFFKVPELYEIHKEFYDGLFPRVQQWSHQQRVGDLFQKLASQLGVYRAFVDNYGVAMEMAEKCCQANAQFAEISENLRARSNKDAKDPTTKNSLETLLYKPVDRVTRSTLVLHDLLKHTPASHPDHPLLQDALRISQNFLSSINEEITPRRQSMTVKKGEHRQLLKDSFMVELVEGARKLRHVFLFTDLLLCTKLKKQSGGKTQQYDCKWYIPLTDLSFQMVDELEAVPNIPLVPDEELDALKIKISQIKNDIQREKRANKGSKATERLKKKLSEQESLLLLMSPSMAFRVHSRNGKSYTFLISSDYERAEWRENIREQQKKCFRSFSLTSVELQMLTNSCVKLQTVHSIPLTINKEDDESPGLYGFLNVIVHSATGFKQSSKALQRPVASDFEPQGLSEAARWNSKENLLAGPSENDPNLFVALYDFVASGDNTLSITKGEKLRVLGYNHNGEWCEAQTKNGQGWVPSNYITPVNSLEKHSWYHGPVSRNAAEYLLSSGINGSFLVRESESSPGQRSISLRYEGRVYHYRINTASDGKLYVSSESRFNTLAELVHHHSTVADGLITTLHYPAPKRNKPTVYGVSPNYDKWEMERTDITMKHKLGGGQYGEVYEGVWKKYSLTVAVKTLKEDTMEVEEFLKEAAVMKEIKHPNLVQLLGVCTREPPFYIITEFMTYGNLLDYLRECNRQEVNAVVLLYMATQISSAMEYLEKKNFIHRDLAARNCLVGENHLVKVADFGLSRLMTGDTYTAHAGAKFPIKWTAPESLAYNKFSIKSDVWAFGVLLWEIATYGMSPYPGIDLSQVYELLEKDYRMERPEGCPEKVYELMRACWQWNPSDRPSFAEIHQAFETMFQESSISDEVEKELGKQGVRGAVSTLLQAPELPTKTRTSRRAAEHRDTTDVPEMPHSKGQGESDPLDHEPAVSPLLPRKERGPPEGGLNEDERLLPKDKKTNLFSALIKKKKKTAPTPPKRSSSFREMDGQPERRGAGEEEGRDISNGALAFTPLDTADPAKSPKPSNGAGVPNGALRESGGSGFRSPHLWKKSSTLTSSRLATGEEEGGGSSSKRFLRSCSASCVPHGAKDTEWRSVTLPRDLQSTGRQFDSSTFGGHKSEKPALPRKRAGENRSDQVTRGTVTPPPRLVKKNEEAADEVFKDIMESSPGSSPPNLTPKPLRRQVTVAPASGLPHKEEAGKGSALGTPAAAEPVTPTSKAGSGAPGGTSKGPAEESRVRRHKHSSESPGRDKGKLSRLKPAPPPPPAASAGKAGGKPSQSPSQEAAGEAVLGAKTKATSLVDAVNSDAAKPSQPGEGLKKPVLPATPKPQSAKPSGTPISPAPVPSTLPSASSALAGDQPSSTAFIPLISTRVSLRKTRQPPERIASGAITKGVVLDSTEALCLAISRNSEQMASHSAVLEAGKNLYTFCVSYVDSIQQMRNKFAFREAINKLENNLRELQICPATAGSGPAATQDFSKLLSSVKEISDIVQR
Description: Top: The BCR-ABL expressing CML cell line (K562) was incubated with 5 μM Degrasyn for the interval noted before cells were lysed and protein extracts were analyzed for BCR-ABL protein (using anti-Abl) levels by immunoblotting. The blot was stripped and reprobed for actin as a protein loading control.
Bottom: RNA from cells treated as described above was isolated (TRIzol Reagent) and used as a template to generate cDNA. This material was then used to prime a real-time PCR reaction for bcr-abl and ubiquitin (Ub) transcripts. The values are reported in terms of the ratio of bcr-abl to Ub.
K562 cells were treated with Degrasyn (2 h, 5 μM) before cells were lysates were prepared and analyzed for BCR-ABL, c-Abl and BCR protein levels. Actin was probed on the stripped blot to control for protein loading.
K562 cells were treated with nothing (Control), vehicle (DMSO; 0.1%), 5 μM Degrasyn or 5 μM geldanamycin for the interval indicated. Cell lysates were prepared and BCR-ABL, HSP70 and Actin were subjected to immunoblotting.
K562 cells were treated with […] Degrasyn for 1 to 2 h before equal protein cell extracts were immunoblotted for BCR-ABL, c-Abl, BCR, HSP90, HSP70 and actin.
K562 cells were treated with Degrasyn (5 μM) for the interval indicated before cell lysates were prepared (Soluble Fraction; prepared in buffer containing 1% NP-40, 0.5% Na-deoxycholate, 0.1% Na-dodecyl sulfate). […]
Western Blot analysis. Cells were harvested, washed twice in cold 1×PBS and lysed in modified RIPA lysis buffer (150 mM NaCl, 1% NP-40, 0.5% Na-deoxycholate [DOC], 0.1% Na-dodecyl sulfate [SDS], 50 mM Tris-HCl (pH 7.5), 1 mM EDTA, 1 mM NaF, 2 mM Na-vanadate, with protease inhibitors (1 mM PMSF, 1 mM benzamidine, 10 μg/ml aprotinin, 10 μg/ml leupeptin) on ice for 30 min. The lysed cells were centrifuged at 13,000 rpm for 30 min and the supernatant collected. The protein concentration of the cell lysate was determined by the Bradford Protein Assay. Fifty to 60 μg of protein were resolved in a 10% SDS-PAGE, and transferred to a PVDF membrane. […]
Real-Time Quantitative TR-PCR analysis of bcr/abl mRNA. […]

[2] = system: CML cells expressing the T315I mutant BCR-ABL; test: Clonal outgrowth of CML cells from imatinib resistant patients; assay type: cell-based, human; conditions: cells of 2 patients that failed imatinib therapy
Description: Isolation of cellular fractions from clinical specimens. Mononuclear cells were isolated from peripheral blood or bone marrow of imatinib-resistant CML patients after informed consent was obtained for a protocol reviewed and approved by the Institutional Review Board of M.D. Anderson Cancer Center. Cells were purified on Ficoll-Hypaque gradients.

[3] = system: MM-1 cells; test: MTT assay of cell growth and survival, MM-1 cells; assay type: cell-based
Description: All compounds are tested for purity (HPLC, NMR) and the calculated molecular weight is used to make up a 10 mM stock solution of each compound (in 100% dimethylsulfoxide or 50% dimethylsulfoxide:50% polyethylene glycol 300). Compounds are diluted into cell culture media consisting of RPMI 1640 with 10% fetal bovine serum to a final starting concentration of 10 μM. [Highest final DMSO content=0.1%.]. Tumor cells (20,000 for non-adherent cells; 5,000 for adherent cells) are plated into individual wells of a 96-well culture plate in 0.1 ml of culture media. Diluted compounds are added to individual wells containing pre-plated cells (final volume 0.2 ml) and incubated at 37° C. for 24 to 72 h. Wells receiving vehicle alone acted as a control.
MTT (viability) assay. MTT reagent (20 μl of 5 mg/ml stock solution, Sigma) is added to the cells and the plates are incubated at 37° C. for another 2 h. Cells are lysed by adding 100 μl of lysis buffer (20% SDS in 50% N,N-dimethylformamide (Sigma) adjusted to pH 4.7 by 80% acetic acid and 1 M HCl such that the final concentration of acetic acid is 2.5% and HCl is 2.5%) into each well and incubated for 6 h. The OD570 of each sample is determined by using a SPECTRA MAX M2 plate reader (Molecular Devices). The OD in control and treated wells is used as an estimate of the effect of compounds on cell growth and survival.
Cell lines. […] A375 melanoma cells were grown and maintained in the same media. Ba/F3 parental cells were grown in RPMI 1640 containing 10% heat inactivated fetal bovine serum and 2 mM glutamine supplemented with IL-3 (1 ng/ml) while Ba/F3 cells stably expressing Bcr/Abl or the T315I mutant of Bcr/Abl were grown in RPMI 1640 containing 10% heat inactivated fetal bovine serum and 2 mM glutamine in the absence of IL-3. Normal human dermal fibroblasts (NHDF) were obtained from Cambrex (Walkersville, Md.) and grown in specially formulated media (obtained through Cambrex) with 20% fetal calf serum.
IC50 determinations. The anti-tumor activity of certain compounds of the present invention against MM-1 cell lines was investigated and the IC50 values calculated (FIGS. 33A-F). In a typical experiment, MM-1 cell lines were incubated with a range of compound concentrations for 72 h to determine the concentration required to inhibit cell growth or induce apoptosis by 50% (IC50). MTT assays as described above were used to conduct this analysis.

Structure (SMILES): CCC[C@H](NC(=O)/C(C#N)=C/c1cccc(Br)n1)c1ccccc1 [Degrasyn]
- Cytoplasmic staining of BCR-ABL (microscopy) ([1]; 5 μM): reduced cytoplasmic staining of BCR-ABL
- BCR-ABL, c-Abl, BCR, HSP90, HSP70 levels ([1]; 5 µM, 1 to 2 h): down-regulated
- BCR-ABL, c-Abl and BCR protein levels ([1]; 2 h, 5 μM): reduced BCR-ABL protein levels but had minimal effects on c-Abl and BCR
- Colony formation of leukemic cells [2]: more effective than imatinib in suppressing colony formation
- IC50 ([3]; FIG. 21, anti-tumor activity, read-out: IC50 for MM-1 cells): 1400 nM
- IC50 ([3]; FIG. 31, 72 h, MTT, average of 4 determinations, read-out: IC50, MM-1 cells): ~1200 nM
